Laboratory results from patent EP0235823A2, “Carbapenem antibiotics, a process for preparing them and pharmaceutical compositions containing them” (Bristol-Myers Squibb Company, priority 1986, dated 1987).
Converted amounts (≈) assume the structure as drawn.

Experiments:
Type in all cases: cell-based
[1] = system: S.aureus + 50% serum A9537S; test: In vitro antibacterial activity, MIC by tube dilution, with 50% serum; settings: Staphylococcus aureus, read-out: MIC (mcg/ml)
Excerpt: (§1) C by tube dilution. N-formimidoyl thienamycin was included as a comparison compound.

[2] = system: S.faecalis A20688; test: In vitro antibacterial activity, MIC by tube dilution; settings: Enterococcus faecalis, Nutrient Broth, overnight incubation at 37 deg. C
Excerpt: as §1

[3] = system: S.aureus A9537; test: as above; settings: Staphylococcus aureus, Nutrient Broth, overnight incubation at 37 deg. C
Excerpt: as §1

[4] = system: S.pyogenes A9604; test: as above; settings: Streptococcus pyogenes, Nutrient Broth, overnight incubation at 37 deg. C
Excerpt: as §1

[5] = system: S.pneumoniae A9585; test: as above; settings: Streptococcus pneumoniae, Nutrient Broth, overnight incubation at 37 deg. C
Excerpt: as §1

Structure (SMILES)	MIC [1] [µg/mL]	MIC [2] [µg/mL]	MIC [3] [µg/mL]	MIC [4] [µg/mL]	MIC [5] [µg/mL]
C[C@@H](O)[C@H]1C(=O)N2C(C(=O)[O-])=C(SCC[N+]34CCN(CC3)CC4)[C@H](C)[C@H]12 [Ex. 7, (5R,6S) 3-[2-(1,4-diazabicyclo[2.2.2.]octanium-1-yl)ethylthio]-6-(1R-hydroxyethyl)-4R-methy3-7-oxo-1-azabicyclo[3.2.0]hept-2-ene-2-carboxylate]	0.13 (≈ 0.341 µM)	2 (≈ 5.24 µM)	0.5 (≈ 1.31 µM)	0.03 (≈ 0.0786 µM)	0.03 (≈ 0.0786 µM)
CC(O)C1C(=O)N2C(C(=O)O)=C(SCCN=CN)CC12 (stereo not shown) [N-Formimidoy Thienamycin, N-formimidoyl thienamycin]	0.016 (≈ 0.0534 µM)	0.25 (≈ 0.835 µM)	0.004 (≈ 0.0134 µM)	0.002 (≈ 0.00668 µM)	0.002 (≈ 0.00668 µM)
